In ChEMBL document CHEMBL1123971, “Synthesis, platelet aggregation inhibitory activity, and in vivo antithrombotic activity of new 1,4-dihydropyridines” (J Med Chem, 1988):

Columns and labels:
Felis catus [1] = experiment: Effect of intravenous infusion on systolic pressure in Anesthetized cats at a dose of 2.25 mg/kg at 15 min; assay type: functional
Felis catus [2] = experiment: Effect of intraperitoneal infusion on systolic pressure in Anesthetized cats at a dose of 200 mg/kg at 15 min; assay type: functional
Felis catus [3] = experiment: Effect of intravenous infusion on respiration frequency in Anesthetized cats at a dose of 1.50 mg/kg at 10 min; assay type: functional; conditions: dose 1.5 mg/kg
Felis catus [4] = experiment: Effect of intraperitoneal infusion of compound on cardiac frequency in Anesthetized cats at a dose of 200 mg/kg at 90 min; assay type: functional, Heart
Felis catus [5] = experiment: Effect of intraperitoneal infusion of compound on cardiac frequency in Anesthetized cats at a dose of 200 mg/kg at 75 min; assay type: functional, Heart
Felis catus [6] = experiment: Effect on cardiac frequency in Anesthetized cats at a dose of 2.25 mg/kg at 15 min; assay type: functional, Heart
Felis catus [7] = experiment: Effect of intraperitoneal infusion on respiration frequency in Anesthetized cats at a dose of 200 mg/kg at 120 min; assay type: functional
Cavia porcellus = species on record: Cavia porcellus; experiment: Chronotropic activity on left and right guinea pig artia (beats/min), at 15 min; assay type: functional

CCO/C(O)=C1\C(C)=NC(C)=C(C(=O)OCCN2C(=O)c3ccccc3S2(=O)=O)C1C (centres undefined)
Arterial pressure (Felis catus [1]): 162 mmHg
Arterial pressure (Felis catus [2]): 130 mmHg
Respiratory frequency (Felis catus [3]): 18 r.p.m.
Cardiac frequency (Felis catus [4]): 256 beats min-1
Cardiac frequency (Felis catus [5]): 255 beats min-1
Cardiac frequency (Felis catus [6]): 217 beats min-1
Respiratory frequency (Felis catus [7]): 13 r.p.m.
Beats/min (Cavia porcellus): 138
Control (Cavia porcellus): 100.7%
